In patent US12167999B2, “Anti-inflammatory and mydriatic intracameral solutions for inhibition of postoperative ocular inflammatory conditions” (Rayner Intraocular Lenses Limited, priority 2014, dated 2024):
Where two headings read alike, the source gives them in different places.

Tests used:
COX-2 [1] = molecular target: T1, COX-2 (Homo sapiens, UniProt P35354); conditions: cited from earlier work
T1 sequence (P35354 18-604): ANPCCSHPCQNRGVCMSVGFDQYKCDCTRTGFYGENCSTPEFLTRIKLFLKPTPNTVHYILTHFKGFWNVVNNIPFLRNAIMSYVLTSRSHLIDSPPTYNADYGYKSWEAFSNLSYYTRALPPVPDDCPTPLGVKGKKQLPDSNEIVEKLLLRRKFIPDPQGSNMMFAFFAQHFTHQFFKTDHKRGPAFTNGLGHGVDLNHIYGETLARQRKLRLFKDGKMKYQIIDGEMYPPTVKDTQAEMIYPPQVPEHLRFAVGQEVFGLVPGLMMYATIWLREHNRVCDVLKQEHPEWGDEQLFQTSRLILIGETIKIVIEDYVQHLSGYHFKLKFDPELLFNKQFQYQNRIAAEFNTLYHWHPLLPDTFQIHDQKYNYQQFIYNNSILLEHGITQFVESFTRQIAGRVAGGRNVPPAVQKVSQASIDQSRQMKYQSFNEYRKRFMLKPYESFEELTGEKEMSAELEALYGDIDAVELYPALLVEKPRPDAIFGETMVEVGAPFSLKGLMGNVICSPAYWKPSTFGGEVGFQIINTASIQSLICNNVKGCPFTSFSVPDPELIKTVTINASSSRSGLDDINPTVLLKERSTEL

PGE2 production = conditions: ketorolac 0.45% compared to nepafenac 0.1% and bromfenac 0.09; cited from earlier work
COX-1 [2] = molecular target: COX-1 (Homo sapiens, UniProt P23219); conditions: cited from earlier work
COX-1 (Homo sapiens, UniProt P23219), sequence (P23219 24-599): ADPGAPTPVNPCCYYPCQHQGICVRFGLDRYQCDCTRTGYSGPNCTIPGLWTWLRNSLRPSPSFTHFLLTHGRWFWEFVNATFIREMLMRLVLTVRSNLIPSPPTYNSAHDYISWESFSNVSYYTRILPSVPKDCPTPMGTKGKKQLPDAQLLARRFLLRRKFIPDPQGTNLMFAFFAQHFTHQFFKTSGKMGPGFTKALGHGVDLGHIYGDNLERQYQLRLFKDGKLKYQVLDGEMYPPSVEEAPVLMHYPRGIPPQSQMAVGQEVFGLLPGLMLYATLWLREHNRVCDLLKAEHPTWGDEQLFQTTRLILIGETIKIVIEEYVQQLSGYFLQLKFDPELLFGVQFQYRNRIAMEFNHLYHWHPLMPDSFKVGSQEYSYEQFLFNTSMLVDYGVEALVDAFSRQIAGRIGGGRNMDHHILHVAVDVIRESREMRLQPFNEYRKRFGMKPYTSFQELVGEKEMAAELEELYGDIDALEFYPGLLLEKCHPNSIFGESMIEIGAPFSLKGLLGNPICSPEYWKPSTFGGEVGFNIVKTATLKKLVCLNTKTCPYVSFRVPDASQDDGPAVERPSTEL

[3] = Ocular tissue distribution of ketorolac after intracameral OMS302 during IOL replacement in dogs; format: in vivo, female beagles
Experimental: This example describes the results of an in vivo study in dogs to determine the concentrations of ketorolac in the retina and other ocular tissues following the intracameral administration of phenylephrine 1% and ketorolac 0.3% injection formulated as described in Table 1 (OMS302) during IOL replacement in dogs.
(§1) IOL replacement by phacoemulsification was performed on 20 female beagles. During the procedure, OMS302 was administered in BSS solution via irrigation and intracameral injection immediately post-procedure. The target dose level of ketorolac was 5.71 mg/eye, and the target dose volume of OMS302 diluted in BSS solution was […] per eye. Four animals per time point were sacrificed at 0, 2, 6, 8, and 10 hours post-procedure. Samples of blood and aqueous humor were collected. Enucleated eyes were frozen and dissected for collection of retina, retinal pigmented epithelium-choroid, cornea, iris-ciliary body, vitreous humor, sclera, and lens capsule. Tissue concentrations of ketorolac were quantitated using a liquid chromatography/mass spectrometry (LCMS) method. Using published IC50 values for cyclooxygenase (COX) inhibition by ketorolac (Waterbury, et. al., Curr Med Res Opin 22(6):1133-40 (2006)), estimates of percent inhibition were derived for each time point.

COX-2 [4] = assay: Estimated percent inhibition of COX-2 from tissue ketorolac concentrations in dogs; format: in vivo, female beagles; conditions: for estimated COX-2 inhibition: retina
Experimental: IOL replacement by phacoemulsification was performed on 20 female beagles. During the procedure, OMS302 was administered in BSS solution via irrigation and intracameral injection immediately post-procedure. […] Four animals per time point were sacrificed at 0, 2, 6, 8, and 10 hours post-procedure. Samples of blood and aqueous humor were collected. Enucleated eyes were frozen and dissected for collection of retina, retinal pigmented epithelium-choroid, cornea, iris-ciliary body, vitreous humor, sclera, and lens capsule. Tissue concentrations of ketorolac were quantitated using a liquid chromatography/mass spectrometry (LCMS) method.

COX-1 [5] = assay: Estimated percent inhibition of COX-1 from tissue ketorolac concentrations in dogs; format: in vivo, female beagles; conditions: for estimated COX-1 inhibition: retina
Experimental: as §1

[6] = human, in vivo
From the text: Patients undergoing cataract extraction and lens replacement (CELR) were eligible. Written informed consent was obtained from 14 subjects, each of whom received topical ophthalmic ketorolac according to the surgeon's usual practice, beginning one day preoperatively. Immediately prior to the initial surgical incision, the surgeon withdrew a 100-μL sample of aqueous humor from the operative eye with a 30-gauge tuberculin syringe. At the conclusion of CELR prior to final re-inflation of the anterior chamber and wound closure, the surgeon withdrew another 100-μL sample from the anterior chamber. The ketorolac concentrations of the intracameral fluid samples were analyzed by an analytical laboratory.

[7] = used for the estimate of percent inhibition
[8] = aqueous humor, vitreous humor and RPE-choroid, t=8 hours
[9] = for at least 8 hours following drug administration
[10] = for at least 10 hours following drug administration

- concentration at 0 h ([3]; female, beagle, dog, plasma, 5.71 mg/eye, t=0, read-out: mean plasma level of ketorolac): 4.73 ± 1.46 ng/mL
- concentration at 8 h ([3]; female, beagle, dog, retina, 5.71 mg/eye, eight hours post-procedure, intracameral OMS302 in BSS): 164 ± 39 ng/g
- concentration at 0 h ([3]; female, beagle, dog, retina, 5.71 mg/eye, immediately following the end of IOL replacement (t=0), intracameral OMS302 in BSS, read-out: Ketorolac concentration in the retina): 1400 ± 1000 ng/g
- half-life ([3]; female, beagle, dog, retina, 5.71 mg/eye, ketorolac after intracameral OMS302, read-out: retinal half-life (converted)): ~3.8 h
- mean plasma level of ketorolac ([3]; t≥2 hours): undetectable
- subjects with an undetectable concentration of ketorolac in the aqueous humor at the end of the surgical procedure [6]: 66.7%
SMILES: O=C(c1ccccc1)c1ccc2n1CCC2C(=O)O (racemic) [ketorolac, (+/−)-5-Benzoyl-2,3-dihydro-1H-pyrrolizine-1-carboxylic acid: 2-amino-2(hydroxymethyl)-1,3-propanediol (1:1)]
- IC50 (COX-2 [1]; published value): 120 nM
- Ki (COX-2 [1]; [7]): 60 nM
- inhibition of PGE2 (PGE2 production): greatest inhibition
- IC50 (COX-1 [2]; published value): 20 nM
- Ki (COX-1 [2]; [7]): 10 nM
- inhibition of COX-2 (COX-2 [4]; [8]): > 90%
- inhibition of COX-2 in ocular tissues (COX-2 [4]; [9]): at least 90%
- inhibition of COX-2 in ocular tissues (COX-2 [4]; [10]): at least 85%
- estimated COX-2 inhibition (COX-2 [4]; t=0): 96.0%
- estimated COX-2 inhibition (COX-2 [4]; t=8 hours): 91.1%
- inhibition of COX-1 (COX-1 [5]; [8]): > 90%
- inhibition of COX-1 in ocular tissues (COX-1 [5]; [9]): at least 90%
- inhibition of COX-1 in ocular tissues (COX-1 [5]; [10]): at least 85%
- estimated COX-1 inhibition (COX-1 [5]; t=0): 99.3%
- estimated COX-1 inhibition (COX-1 [5]; t=8 hours): 98.4%
- mean percent inhibition of COX-1 (COX-1 [5]; retinal tissue, t=10 hours, standard deviation 0.36%): 97.74%
